Where two headings read alike, the source gives them in different places.
Assays:
[1] = test system: Staphylococcus aureus; assay: Evaluation of phosphate substrate on agar (Table 3); assay type: cell-based; settings: Staphylococcus aureus NCTC 6571
[2] = test system: Escherichia coli; assay: as above; assay type: cell-based; settings: Escherichia coli NCTC 10418
[3] = test system: Enterococcus faecalis; assay: as above; assay type: cell-based; settings: Enterococcus faecalis NCTC 775
[4] = test system: Yersinia enterocolitica; assay type: cell-based; settings: Yersinia enterocolitica NCTC 11197
[5] = test system: All species tested; assay: Evaluation of phosphate substrate on agar, all species tested; assay type: cell-based
[6] = test system: Clostridium perfringens; assay type: cell-based; settings: Clostridium perfringens NCTC 8181; incubated anaerobically
[7] = test system: Acinetobacter lwoffii; assay: Evaluation of phosphate substrate on agar (Table 3); assay type: cell-based; settings: Acinetobacter lwoffii ATCC 15309
[8] = test system: E. coli; assay: Evaluation of methoxyflavone riboside with metal salts; assay type: cell-based
Text: (§1) This was achieved using a densitometer.
(§2) The substrate shown in the heading was synthesised from the same flavone starting material as Example 11 by a method analogous to that of Example 2. […] The species tested was E. coli. […] When the aluminium salt-containing medium was used with a mixed culture of E. coli and Yersinia entermcolitica, the E. coli colonies were bright yellow and stood out very clearly.

[9] = test system: Y. enterocolitica; assay: as above; assay type: cell-based; settings: aluminium salt-containing medium; mixed culture with E. coli
Text: as §1, §2

[10] = test system: K. pneumoniae; assay: Evaluation of galactoside substrates with metal salts forming chelates; settings: IPTG 30 mg/l; for Colour of colonies: K. pneumoniae
[11] = test system: E. coli; assay: Evaluation of benzophenone glucoside on agar (Table 6); assay type: cell-based; set-up: growth: key to the marks not given beside the values; settings: ferric ammonium nitrate at 500 mg/l
Text: as §1
(§3) The background agar was beige.

[12] = test system: S. aureus; assay: as above; assay type: cell-based; set-up: growth: key to the marks not given beside the values; settings: ferric ammonium nitrate at 500 mg/l
Text: as §1, §3

[13] = test system: S. sonnei; assay: as above; assay type: cell-based; set-up: growth: key to the marks not given beside the values; settings: ferric ammonium nitrate at 500 mg/l
Text: as §1, §3

[14] = test system: L. monocytogenes; assay: as above; settings: ferric ammonium nitrate at 500 mg/l
[15] = test system: E. faecalis; assay: as above; settings: ferric ammonium nitrate at 500 mg/l
[16] = test system: Gram positive organisms; assay: Evaluation of benzophenone glucoside on agar, screen; assay type: cell-based
Text: as §1, §3

[17] = test system: K. pneumoniae; assay: Evaluation of benzophenone glucoside on agar (Table 6); set-up: growth: key to the marks not given beside the values; settings: ferric ammonium nitrate at 500 mg/l
[18] = test system: bacterial enzymes; settings: cited from earlier work

For COc1c(-c2ccc(OP(=O)(O)O)c(O)c2)oc2ccccc2c1=O [Example 11], the Interpretation [1] was “Positive”, the colony appearance [1] was “dark green” and the Interpretation [2] was “Positive”. The colony appearance [2] was “pale green”, the Interpretation [3] was “Positive” and the colony appearance [3] was “small dark green/black”. For the same molecule, the Interpretation [4] was “Negative”, the colony appearance [4] was “colourless” and the “growth on this medium” value [5] was “grew well”. For the same molecule, the Interpretation [6] was “Positive”, the colony appearance [6] was “dark green” and the Interpretation [7] was “Negative”. For the same molecule, the colony appearance [7] was “colourless”.
In the case of COc1c(-c2ccc(O[C@@H]3O[C@H](CO)[C@@H](O)[C@H]3O)c(O)c2)oc2ccccc2c1=O [3′,4′-dihydroxy-3-methoxyflavone-4′-β-D-ribofuranoside], the colour of precipitates ([8]; E. coli, in the presence of metal salts) is reported as “coloured almost identically to the corresponding products referred to in Table 4”, the “colour of E. coli colonies” value ([8]; aluminium salt-containing medium, mixed culture of E. coli and Yersinia) is reported as “bright yellow” and the “colour of Y. enterocolitica colonies” value [9] is reported as “colourless”.
In the case of COc1c(-c2ccc(O[C@@H]3O[C@H](CO)[C@H](O)[C@H](O)[C@H]3O)c(O)c2)oc2ccccc2c1=O [3′,4′-dihydroxy-3-methoxyflavone-4′-β-D-galactopyranoside], the “Colour of K. pneumoniae colonies” value ([10]; Metal Al, salt 500 mg/l) is reported as “Yellow”, the “Colour of K. pneumoniae colonies” value ([10]; Metal Ba, salt 500 mg/l) is reported as “Yellow” and the “Colour of K. pneumoniae colonies” value ([10]; Metal Bi, salt 500 mg/l) is reported as “Rusty orange”. For the same molecule, the “Colour of K. pneumoniae colonies” value ([10]; Metal Co, salt 500 mg/l) was “No growth”, the “Colour of K. pneumoniae colonies” value ([10]; Metal Fe, salt 500 mg/l) was “Brown” and the “Colour of K. pneumoniae colonies” value ([10]; Metal Mn, salt 500 mg/l) was “Pale orange”. The “Colour of K. pneumoniae colonies” value ([10]; Metal Sn, salt 500 mg/l) was “Yellow”, the “Colour of K. pneumoniae colonies” value ([10]; Metal Sr, salt 500 mg/l) was “Yellow” and the “Colour of K. pneumoniae colonies” value ([10]; Metal Zn, salt 500 mg/l) was “No growth”. The “Colour of K. pneumoniae colonies” value ([10]; No metal) was “Diffuse yellow”.
In the case of “3′,4′-Dihydroxyflavone-4′-β-galactopyranoside sodium salt”, the Colour of colonies ([10]; Metal Al, salt 500 mg/l) is reported as “Yellow”, the Colour of colonies ([10]; Metal Ba, salt 500 mg/l) is reported as “Pale yellow” and the Colour of colonies ([10]; Metal Bi, salt 500 mg/l) is reported as “Rusty orange”. The Colour of colonies ([10]; Metal Co, salt 500 mg/l) was “(inhibits; no growth)”, the Colour of colonies ([10]; Metal Cu, salt 500 mg/l) was “Orange/brown” and the Colour of colonies ([10]; Metal Fe, salt 500 mg/l) was “Dark brown or black”. The Colour of colonies ([10]; Metal Mn, salt 500 mg/l) was “Pale orange”, the Colour of colonies ([10]; Metal Sn, salt 500 mg/l) was “Pale yellow” and the Colour of colonies ([10]; Metal Sr, salt 500 mg/l) was “Yellow”. The Colour of colonies ([10]; Metal Zn, salt 500 mg/l) was “(inhibits; no growth)” and the Colour of colonies ([10]; No metal) was “Diffuse pale yellow”.
In the case of COc1c(C(=O)c2ccccc2)ccc(O[C@@H]2O[C@H](CO)[C@@H](O)[C@H](O)[C@H]2O)c1O [3,4-dihydroxy-2-methoxybenzophenone-4-β-D-glucopyranoside], the colony colour [11] is reported as “cream”, the growth [11] is reported as “++” and the colony colour [12] is reported as “cream”. The growth [12] was “++”, the colony colour [13] was “cream” and the growth [13] was “++”. For the same molecule, the colony colour [14] was “pale black”, the colony colour [15] was “cream” and the effect on growth [16] was “growth inhibiting”. The colony colour [17] was “red/brown” and the growth [17] was “++”.
For O=C1c2ccccc2C(=O)c2c1ccc(O[C@@H]1O[C@H](CO)[C@H](O)[C@H](O)[C@H]1O)c2O [alizarin β-D-galactopyranoside, alizarin β-D- galactopyranoside], the Colour of colonies ([18]; in the presence of aluminium salts) is listed as “bright-red” and the Colour of colonies ([18]; in the presence of iron salts) is listed as “bright-violet”.

Source: patent US7531646B2, “β-D-ribosidase activity indicators with a chromogenic substrate” (priority 2001, dated 2009)
